# System: termite Prorhinotermes simplex
# Assay: Force feeding test (FF): juvenilizing effect (induction of soldier caste differentiation) on termite pseudergates
# Type: in vivo
# Conditions: 500 ppm in treated food, 60 pseudergates, 16 days, soldier caste induction in percents of surviving individuals
# Source text: A Way of Screening of the Biological Activity of the Compound Claimed in the claim 1 of the General Formula I Against Termite Prorhinotermes Simplex
# Termites have only a sample of food treated with the compound claimed in the claim 1 of the general formula I in the force feeding test (FF), but a choice between a sample of food treated with the compound claimed in the claim 1 of the general formula I and a reference sample of food treated with acetone only. A treatment of the food samples with the compound I claimed in the claim 1 has been made in at least two concentrations, 500 ppm and 5 ppm. A number of 60 pseudergates was exposed to a treatment in each test, and each test is twice repeated. Each test has 16 days duration. The induction of the soldier caste differentiation has been evaluated as the juvenilizing effect. The result is given in percents of the number of surviving individuals. The juvenoid methoprene has been used as the reference compound for testing of the biological activity of the compound I claimed in the claim 1. The results of screening of several structures corresponding the general formula I claimed in the claim 1 in a concentration of 500 ppm are given in Table 1.
row,Compound,Juvenilizing effect [%]
1,CCCCCCCCCCCCCCCCCC(=O)O[C@H]1CCCC[C@H]1Cc1ccc(OCCNC(=O)OCC)cc1 (relative stereo) [Ethyl N-{2-{4-[(cis-2-octadecanoyloxycyclohexyl)methyl]phenoxy}ethyl} carbamate],40.0
2,CCCCCCCCCCCCCCCCCC(=O)O[C@@H]1CCCC[C@H]1Cc1ccc(OCCNC(=O)OCC)cc1 (relative stereo) [Ethyl N-{2-{4-[(trans-2-octadecanoyloxycyclohexyl)methyl]phenoxy}ethyl} carbamate],70.0
3,CCCC(=O)O[C@H]1CCCC[C@H]1Cc1ccc(OCCNC(=O)OCC)cc1 (relative stereo) [Ethyl N-{2-{4-[(cis-2-butanoyloxycyclohexyl)methyl]phenoxy}ethyl} carbamate],86.1
4,"COC(C)(C)CCC[C@H](C)C/C=C/C(C)=C/C(=O)OC(C)C (racemic) [Methoprene, methoprene, reference compound]",1.3
5,CCCC(=O)O[C@@H]1CCCC[C@H]1Cc1ccc(OCCNC(=O)OCC)cc1 (relative stereo) [Ethyl N-{2-{4-[(trans-2-butanoyloxycyclohexyl)methyl]phenoxy}ethyl} carbamate],87.4
6,CCCCCCCCCCCCCCCC(=O)O[C@@H]1CCCC[C@H]1Cc1ccc(OCCNC(=O)OCC)cc1 (relative stereo) [Ethyl N-{2-{4-[(trans-2-hexadecanoyloxycyclohexyl)methyl]phenoxy}ethyl} carbamate],90.1
7,CCCCCCCC/C=C\CCCCCCCC(=O)O[C@@H]1CCCC[C@H]1Cc1ccc(OCCNC(=O)OCC)cc1 (relative stereo) [Ethyl N-{2-{4-[(trans-2-(cis-9-octadecenoyl)oxycyclohexyl)methyl]phenoxy}ethyl} carbamate],64.7
8,CCCCCCCC/C=C\CCCCCCCC(=O)O[C@H]1CCCC[C@H]1Cc1ccc(OCCNC(=O)OCC)cc1 (relative stereo) [Ethyl N-{2-{4-[(cis-2-(cis-9-octadecenoyl)oxycyclohexyl)methyl]phenoxy}ethyl} carbamate],93.7
9,CCCCCCCCCCCCCCCC(=O)O[C@H]1CCCC[C@H]1Cc1ccc(OCCNC(=O)OCC)cc1 (relative stereo) [Ethyl N-{2-{4-[(cis-2-hexadecanoyloxycyclohexyl)methyl]phenoxy}ethyl} carbamate],89.1
